melting point | Compound
206 °C | Cn1c2ccccc2c2cc(NC(=O)c3ccccc3Cl)ccc21
258 to 259 °C | COC(=O)c1cc(C(=O)Nc2nccs2)c2cc(Cc3ccc(F)cc3)cnc2c1O
216 to 218 °C | O=C1c2ccccc2-c2c1c1ccccc1c(=O)n2CCCNS(=O)(=O)c1ccccc1
178 to 179 °C | Cc1ccc(O)c(NCCCN2CCN(C(c3ccccc3)c3ccccc3)CC2)c1
240 to 242 °C | CCCNC(=O)C=Cc1ccc2ccn(Cc3ccc(C(=O)NS(=O)(=O)c4ccccc4C)cc3OC)c2c1
275 to 276 °C | O=c1[nH]c2ccc(Br)cc2c(-c2ccccc2)[n+]1[O-]
142 to 143 °C | Cc1oc(-c2ccccc2)nc1COc1ccc(Cc2nc(-c3ccccc3)c(CCC(=O)O)o2)cc1
110 °C | C#Cc1cn(C2CC(O)C(COC(c3ccccc3)(c3ccccc3)c3ccccc3)O2)c(=O)[nH]c1=O (stereo unspecified)
228 to 229 °C | O=C1N(C(c2ccccc2)c2ccccc2)c2ccc(F)cc2C12COc1cc3c(cc12)CCO3 (stereo unspecified)
154 °C | CCN(Cc1ccccc1OCc1ccccc1)c1ccc(C(=O)O)c(F)c1
198 °C | COC(=O)C1=C(C)NN=C(c2ccccc2)C1c1ccccc1Cl (stereo unspecified)
145 to 147 °C | CCN(CCNS(=O)(=O)c1ccc(C)cc1)C(=O)c1ccccc1C(=O)c1ccc(Cl)cc1
123 °C | NC(=O)c1ccc(F)c2c1OCC(N(CCCc1c[nH]c3ccc(F)cc13)CC1CC1)C2 (stereo unspecified)
83 to 87 °C | COC(=O)C1=C(C)NC(C)=C(C(=O)OCCN2CCN(C(c3ccc(C)cc3)c3ccc(C)cc3)CC2)C1c1cccc([N+](=O)[O-])c1 (stereo unspecified)
261 °C | CC(C)(C)NS(=O)(=O)c1cnc(-c2cn(-c3nc(-c4ccc(Cl)cc4)cc(C(F)(F)F)n3)cn2)s1
60 to 61.5 °C | N#Cc1ccc(OCCCn2ccnc2)cc1
75 to 78 °C | CCc1ccc(-c2nc3cccnc3n2-c2ccc(CCNC[C@H](O)COc3ccc(O)cc3)cc2)cc1

melting point | Compound
148 to 151 °C | Cn1nc(-c2ccc(F)cc2)c(-c2ccncc2)c1CC(=O)Cc1ccccc1
198 to 200 °C | CC(=O)Nc1ccc(S(=O)(=O)Nc2ccc(C(O)(C(F)(F)F)C(F)(F)F)cc2)cc1
146 to 148 °C | CCOc1ccc(Cc2cn(C3OC(COC(C)=O)C(OC(C)=O)C(OC(C)=O)C3OC(C)=O)c3cccc(F)c23)cc1 (stereo unspecified)
154 to 155 °C | COc1ccc(-c2cc(=O)c3cc(OCCCCCN4CCC(O)CC4)ccc3o2)cc1OC
202 to 204 °C | CCc1nc2c(N)nc3ccccc3c2n1CC#Cc1cccc(C(F)(F)F)c1
170 °C | CC(C)c1ccc(S(=O)(=O)n2c(Cc3cccc(C(=O)O)c3)cc3cc(Cl)ccc32)cc1
168 °C | COc1cc(-c2ncn(C)c2-c2ccc(C(F)(F)F)cc2)cc(OC)c1OC
163 to 164 °C | Cc1ncccc1COc1ccc2cc(Cn3cc(CCC(=O)O)c(-c4ccccc4)c3)ccc2c1
178 to 180 °C | O=C1CCC(N2Cc3c(OCc4ccc(CN5CCC(C(F)(F)F)CC5)cc4)cccc3C2=O)C(=O)N1 (stereo unspecified)
189 to 191 °C | Cc1cc2cc(CN3CCC(CCC(=O)N4CCCCC4)CC3)cnc2cc1NC(=O)c1ccc(-c2ccc(F)cc2)cc1
127 to 130 °C | O=C(NNC(=O)C(F)(F)C(O)(Cn1cncn1)c1ccc(F)cc1F)c1ccc(F)cc1 (stereo unspecified)
225 to 230 °C | Fc1cccc(F)c1-c1ncc(-c2ccc(-c3ccc(OC(F)(F)F)cc3)cc2)nn1
165 °C | O=C1c2nccnc2C(=O)N1c1ccc(Cl)cn1
201 to 202 °C | Cc1cccc(C)c1NC(=O)NCC1(c2ccccc2)CCCC1
121 to 129 °C | COc1nc(Cl)c(-c2c(F)cc(F)cc2F)c(N[C@@H](C)C(F)(F)F)n1
211 to 212 °C | CCOC(=O)c1cccc(NC(=O)Nc2ccc(-n3nc(C(F)(F)F)cc3C(F)(F)F)cc2)c1
170 to 173 °C | COc1ccc(N2CCN(c3ccc(C)cc3)CC2)c(-c2ccc(N(C)C)cc2)n1

The remaining lines, values behind:

Compound | melting point
O=C(NCC1CC1)c1ccc(F)c2c1CC(N(CCCc1c[nH]c3ccc(F)cc13)C1CCC1)CO2 (stereo unspecified) | 114 °C
CCN1CNS(=O)(=O)c2sc(Cl)cc21 | 119 to 120 °C
CCc1c(Oc2ccc([N+](=O)[O-])cc2C(F)(F)F)nn(C(=O)NC)c1C | 96 to 97 °C
N#Cc1ccc2[nH]cc(CCN)c2c1 | 102 to 105 °C
CCCCCCCCCCCCCCCC(=O)N[C@@H](CSC[C@H](O)CO)C(=O)O | 110 °C
CN1CCCC[C@@H]1Cc1c(-c2ccccc2)[nH]c2ccccc12 | 135 °C
CP(=O)(O)CNC(=O)OCc1ccccc1 | 118 to 119 °C
CC(C)(C)c1cc(CCCOc2ccccc2NC(=O)NC2CCN(Cc3ccccc3)CC2)cc(C(C)(C)C)c1O | 148 to 149 °C
CC(=O)N1N=C(c2ccc(N)cc2)c2cc(Cl)c(Cl)cc2CC1C (stereo unspecified) | 242 to 243 °C
C=CCC1C=C(c2c[nH]c(-c3ccc(F)cc3)c2-c2ccncc2)CCN1C (stereo unspecified) | 218 to 220 °C
COC(=O)/C=C/n1cnc2ccc(Cl)cc2c1=O | 171 to 172 °C
CC(=O)CSc1ncc(C)n1C | 65 to 67 °C
CCCNC1=NS(=O)(=O)c2cc(Cl)sc2N1 | 246 to 247 °C
C=CCNc1nc(NCC=C)nc(N2CCN(C(=S)n3ccnc3)CC2)n1 | 124 to 127 °C
N#Cc1ccc(C(O)C23CCCN2C(=O)N(c2cc(Cl)cc(Cl)c2)C3=O)cc1 (stereo unspecified) | 184 °C
CCOC(=O)Cc1nc(-c2ccccc2)oc1C(C)C | 37 to 38 °C
CCCCc1nc(C(O)(CC)CC)c(C(=O)OCC)[nH]1 | 63 to 64 °C
Cc1nc(=O)[nH]c2cc(Cl)c(NC(N)=O)cc12 | > 310 °C
CCOC(=O)c1coc2c(OC)ccc(C(=O)Cc3c(Cl)cncc3Cl)c12 | 142 to 143 °C
COC1(c2cccc(S(=O)(=O)c3ccc(N(C)C(C)=O)c(Cl)c3)c2)CCOCC1 | 119 to 121 °C
CCC(=O)OC1C(CO)OC(n2cnc3c(N)ncnc32)C1OC(=O)CC (stereo unspecified) | 172 to 173 °C

Compound | melting point
O=C(CO)NCCCCCCCCCCCCNC(=O)CO | 94 to 97 °C
CSCc1cc(O)nc(CSC)n1 | 101 to 102 °C
CCCCc1nc2c(N)nc3c(c2n1CC(C)(C)OCCS(C)(=O)=O)CCCC3 | 146 to 148 °C
COC(=O)c1c(Br)ccc2nn(C)c(C)c12 | 109 to 111 °C
CCCNC(=O)c1ccc(F)c2c1CC(N(CCCc1c[nH]c3ccc(F)cc13)C1CCC1)CO2 (stereo unspecified) | 67 °C
CC(C)(C)OC(=O)C[C@@H](CC1CCCC1)C(=O)N1C(=O)OC[C@@H]1Cc1ccccc1 | 113 to 119 °C
CN(C)CCc1c(CSc2ccccc2)c2ccccc2n1C | 58 to 60 °C
O=C1Nc2ccc3sccc3c2C1=O | 200 to 201 °C
CCC(CC)C(c1ccnn1-c1ccccc1)N(C)S(=O)(=O)c1ccc(Br)s1 (stereo unspecified) | 116 to 118 °C
CC12CCc3cc(C#N)ccc3C1=NNC(=O)C2 (stereo unspecified) | > 300 °C
CCCc1nc(SCCCCC(=O)O)c(C(=O)O)n1Cc1cc2c(cc1Cl)OCO2 | 156 °C
CCC(C)(Cc1c[nH]c2ccccc12)[N+](=O)[O-] (stereo unspecified) | 79.5 to 80 °C
COc1cccc(S)c1S(N)(=O)=O | 166 °C
CC(=O)N1CCC(C(=O)c2ccc(Cl)c(Cl)c2)CC1 | 134 to 136 °C
O=C1Nc2cccnc2N(C(=O)N2CCC(CCN3CCCCC3)CC2)c2ccccc21 | 178 to 180 °C
Cc1ccn(-c2ccc(Cl)c(Cl)c2)n1 | 46 to 47 °C
COC(=O)C(C)Oc1cccc(C=O)c1 (stereo unspecified) | 50.7 °C
N#Cc1ccc2nc(C(F)(F)F)[nH]c2c1 | 194 to 196 °C
O=c1[nH]nc2n1-c1ccc(N3CCCC3)nc1C(c1ccccc1Cl)=NC2 | 228 to 230 °C
N=C(N)c1ccc(C(=O)N[C@@H](Cc2ccccc2)C(=O)N2CCc3nn(CC(=O)O)cc3C2)cc1 | 146 to 150 °C
C=CCONC(=O)c1nc(-c2ccc(Cl)c(OC)c2F)c(F)c(N)c1Cl | 184 to 186 °C

Compound | melting point
CC=CCC(O)(C(=O)c1ccccc1)C(=O)c1ccc(C(C)C)cc1 (stereo unspecified) | 108 to 110 °C
CCCCN1CCN(c2nc(C)c(C(=O)NCc3cccnc3)s2)C1=O | 109 to 111 °C
CC1(O)CCC2C3CCC4=CC(=O)CCC4C3C(=CF)CC21C (stereo unspecified) | 127 to 131 °C
CC(Cc1c[nH]c2ccccc12)(NC(=O)OC1C2CC3CC(C2)CC1C3)C(=O)NC(CNC(=O)CCC(=O)O)Cc1ccccc1 (stereo unspecified) | 110 to 114 °C
O=[N+]([O-])c1ccc2nc(CS(=O)c3ccccn3)[nH]c2c1 (stereo unspecified) | 207 to 209 °C
O=C(CCCCCN1CCN(c2cccc3c2OCCCO3)CC1)N1Cc2ccccc2C1 | 131 °C
N#CC(C#N)C(=O)c1ccsc1 | 132 to 133 °C
O=Cc1cc([N+](=O)[O-])ccc1OC/C=C/CCl | 65 to 66 °C
CCOc1cnc(N[N+](=O)[O-])[nH]c1=O | 189 to 192 °C
N#CC(c1ccc([N+](=O)[O-])cc1)c1ccccn1 (racemic) | 97 to 99 °C
Cn1cc(C2=CCC3(CC2)OCCO3)c2cc(C#N)ccc21 | 65 to 67 °C
CCCC(CCC)Nc1cc(C(=O)O)ccc1N1C(=O)CCC1(CO)CO | 227 to 229 °C
CCOC(=O)[C@H]1O[C@@H]1C(=O)N[C@@H](CC(C)C)C(=O)c1ccccc1 | 118 to 119 °C
COC(=O)c1ccc2c(c1)Sc1ccc(C(C)N(O)C(N)=O)cc1CC2 (stereo unspecified) | 167 to 169 °C
CCOC(=NS(C)(=O)=O)N1Cc2ccccc2-c2ccccc2C1 | 136 to 138 °C
CC(=O)NCC1CC(c2ccc(-n3cccc3)c(F)c2)=NO1 (single isomer, unassigned; (-)) | 176 to 177 °C
Cc1ccc(C(=O)/C=C/c2cc(C(C)(C)C)c3oc(=O)c(C(=O)O)cc3c2)cc1 | 185 to 186 °C
CNc1c(F)cc2c(=O)c(C(=O)O)cn(-c3cc(N)c(F)cc3F)c2c1C | 225 to 228 °C
COC1=C(c2ccccc2)C(CCC(=O)O)OC1=O (stereo unspecified) | 126 to 127 °C
COc1cc(C)nc(N(C)C#N)n1 | 123 °C

— a melting point compilation (Tetko et al.; mined from patent text by program, amines drawn as free bases though some values may be those of a salt)
